One block for each molecule: values may come before it.
Columns and labels:
[1] = target: T1, Kinesin-like protein KIF11 (Homo sapiens, UniProt P52732); assay: Inhibition of KSP in human HCT116 cells assessed as phos-histone H3 level by immunofluorescent assay; format: cell-based, HCT-116
T1 sequence (P52732 whole entry): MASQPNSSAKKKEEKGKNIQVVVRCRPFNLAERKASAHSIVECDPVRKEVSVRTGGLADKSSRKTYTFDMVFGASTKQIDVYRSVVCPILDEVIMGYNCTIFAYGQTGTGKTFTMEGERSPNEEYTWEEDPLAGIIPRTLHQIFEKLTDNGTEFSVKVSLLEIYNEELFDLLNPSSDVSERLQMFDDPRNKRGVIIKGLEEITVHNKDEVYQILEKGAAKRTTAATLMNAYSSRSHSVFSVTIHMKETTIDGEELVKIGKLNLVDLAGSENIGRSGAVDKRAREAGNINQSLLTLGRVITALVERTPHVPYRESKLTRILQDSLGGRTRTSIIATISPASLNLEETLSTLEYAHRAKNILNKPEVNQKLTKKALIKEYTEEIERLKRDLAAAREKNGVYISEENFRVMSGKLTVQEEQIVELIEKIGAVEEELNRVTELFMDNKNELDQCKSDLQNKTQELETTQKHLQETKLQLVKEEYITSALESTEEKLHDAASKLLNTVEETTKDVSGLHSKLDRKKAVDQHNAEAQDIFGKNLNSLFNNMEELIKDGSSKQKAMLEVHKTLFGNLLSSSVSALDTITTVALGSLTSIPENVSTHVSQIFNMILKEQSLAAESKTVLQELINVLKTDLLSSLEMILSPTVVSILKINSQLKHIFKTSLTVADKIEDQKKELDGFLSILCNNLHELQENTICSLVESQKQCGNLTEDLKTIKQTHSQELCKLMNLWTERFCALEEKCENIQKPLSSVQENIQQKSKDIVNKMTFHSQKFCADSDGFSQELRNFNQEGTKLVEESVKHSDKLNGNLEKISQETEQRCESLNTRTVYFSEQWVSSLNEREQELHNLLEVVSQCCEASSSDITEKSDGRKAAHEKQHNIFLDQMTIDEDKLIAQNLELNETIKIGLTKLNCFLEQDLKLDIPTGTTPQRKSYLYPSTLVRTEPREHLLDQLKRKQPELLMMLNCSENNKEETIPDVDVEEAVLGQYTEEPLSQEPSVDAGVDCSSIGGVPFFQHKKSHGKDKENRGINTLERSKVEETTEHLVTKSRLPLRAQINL

[2] = AUC in Sprague-Dawley rat at 1 mg/kg, iv; format: ADME, organism-based; design: dose 1 mg/kg, route intravenous; settings: plasma
[3] = Clearance in CD1 mouse at 5 mg/kg, iv; format: ADME, organism-based; design: dose 5 mg/kg, route intravenous; settings: in vivo
[4] = Oral bioavailability in Sprague-Dawley rat at 5 mg/kg; format: ADME, organism-based; settings: in vivo
[5] = Clearance in Sprague-Dawley rat at 1 mg/kg, iv; format: ADME, organism-based; design: dose 1 mg/kg, route intravenous; settings: in vivo
[6] = Cmax in CD1 mouse at 10 mg/kg, po; format: ADME, organism-based; design: dose 10 mg/kg, route oral; settings: in vivo
[7] = AUC in Sprague-Dawley rat at 5 mg/kg, po; format: ADME, organism-based; design: dose 5 mg/kg, route oral; settings: plasma
[8] = Cmax in Sprague-Dawley rat at 5 mg/kg, po; format: ADME, organism-based; design: dose 5 mg/kg, route oral; settings: in vivo
[9] = AUC in beagle dog at 1 mg/kg, iv; format: ADME, organism-based, Canis lupus familiaris; design: dose 1 mg/kg, route intravenous; settings: plasma
[10] = AUC in CD1 mouse at 5 mg/kg, iv; format: ADME, organism-based; design: dose 5 mg/kg, route intravenous; settings: plasma
[11] = Cmax in beagle dog at 5 mg/kg, po; format: ADME, organism-based, Canis lupus familiaris; design: dose 5 mg/kg, route oral; settings: in vivo
[12] = Clearance in beagle dog at 1 mg/kg, iv; format: ADME, organism-based, Canis lupus familiaris; design: dose 1 mg/kg, route intravenous; settings: in vivo
[13] = AUC in beagle dog at 5 mg/kg, po; format: ADME, organism-based, Canis lupus familiaris; design: dose 5 mg/kg, route oral; settings: plasma
[14] = Oral bioavailability in CD1 mouse at 10 mg/kg; format: ADME, organism-based; settings: in vivo
[15] = Oral bioavailability in beagle dog at 5 mg/kg; format: ADME, organism-based, Canis lupus familiaris; settings: in vivo
[16] = AUC in CD1 mouse at 10 mg/kg, po; format: ADME, organism-based; design: dose 10 mg/kg, route oral; settings: plasma
[17] = Retention time of the compound; format: physicochemical

- EC50 [1]: > 1000 nM
Compound: CC(=O)N1N=C(c2cc(F)ccc2F)SC12CCN(C)c1ccccc12 (stereo not given)

- EC50 [1]: 3310 nM
Compound: CC(=O)N1N=C(c2cc(F)ccc2F)SC12CCSc1ccccc12 (stereo not given)

- EC50 [1]: > 1000 nM
Compound: CC(C)(C)C(=O)N1N=C(c2cc(F)ccc2F)SC12CCOc1ccccc12 (stereo not given)

- EC50 [1]: > 500 nM
Compound: CC(C)C(=O)N1N=C(c2cc(F)ccc2F)SC12CCOc1ccccc12 (stereo not given)

- EC50 [1]: > 500 nM
Compound: NCCC(=O)N1N=C(c2cc(F)ccc2F)SC12CCOc1ccccc12 (stereo not given)

- EC50 [1]: 263 nM
Compound: CN(C)CCCC(=O)N1N=C(c2cc(F)ccc2F)SC12CCOc1ccccc12 (stereo not given)

- AUC [2]: 0.8 µM·h
- clearance [3]: 29 mL/min/kg
- bioavailability [4]: 44%
- clearance [5]: 50 mL/min/kg
- Cmax [6]: 1200 nM
- AUC [7]: 1.7 µM·h
- EC50 [1]: 5 nM
- Cmax [8]: 180 nM
- AUC [9]: 1.9 µM·h
- AUC [10]: 6.5 µM·h
- Cmax [11]: 200 nM
- clearance [12]: 20 mL/min/kg
- AUC [13]: 1.7 µM·h
- bioavailability [14]: 100%
- bioavailability [15]: 18%
- AUC [16]: 13.4 µM·h
Compound: CC(=O)N1N=C(c2cc(F)ccc2F)S[C@@]12c1cc(F)cc(F)c1OC[C@H]2CCN

- EC50 [1]: > 1000 nM
Compound: CC(=O)N1CCC2(SC(c3cc(F)ccc3F)=NN2C(C)=O)c2ccccc21 (stereo not given)

- EC50 [1]: 205 nM
- Retention_time [17]: 2.15 min
Compound: CC(=O)N1N=C(c2cc(F)ccc2F)S[C@]12c1ccccc1OC[C@H]2CCN

- EC50 [1]: 5 nM
Compound: CC(=O)N1N=C(c2cc(F)ccc2F)SC12c1ccccc1OCC2CCN (racemic)

- EC50 [1]: > 1000 nM
Compound: NCC(=O)N1N=C(c2cc(F)ccc2F)SC12CCOc1ccccc12 (stereo not given)

- EC50 [1]: > 1000 nM
- Retention_time [17]: 2.33 min
Compound: CC(=O)N1N=C(c2cc(F)ccc2F)S[C@]12c1ccccc1OC[C@@H]2CCN

- EC50 [1]: 139 nM
Compound: CC(=O)N1N=C(c2cc(F)ccc2F)SC12CCOc1ccccc12 (stereo not given)
